Measured values as given in PMC9638024, “Functional rewiring of G protein-coupled receptor signaling in human labor” (Cell Reports, 2022).
pEC50: −log10 of the molar value.

Target: T1, EP2 (prostaglandin E2 receptor EP2) (Homo sapiens, UniProt P43116)
T1 construct: gene PTGER2; FLAG-EP2 stably expressed in HEK 293 cells
Test: cAMP accumulation dose-response in HEK […] cells stably expressing FLAG-EP2 (agonist)
Assay type: cell-based

T1 sequence (P43116 whole entry): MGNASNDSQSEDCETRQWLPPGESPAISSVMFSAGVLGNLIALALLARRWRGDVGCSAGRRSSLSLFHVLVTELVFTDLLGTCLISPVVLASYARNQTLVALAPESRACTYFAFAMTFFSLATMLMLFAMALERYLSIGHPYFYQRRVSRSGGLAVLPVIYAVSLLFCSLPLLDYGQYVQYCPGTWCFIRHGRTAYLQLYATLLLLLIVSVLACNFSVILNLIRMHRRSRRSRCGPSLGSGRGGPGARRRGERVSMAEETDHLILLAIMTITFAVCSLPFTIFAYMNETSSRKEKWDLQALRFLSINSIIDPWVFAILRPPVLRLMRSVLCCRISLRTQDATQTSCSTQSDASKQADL

pEC50: 8.68
SMILES: CC(C)OC(=O)COc1cccc(NC(=O)c2cc(-c3cccc(F)c3)ccc2F)c1 [PGN9856i]
